pIC50: −log10 of the molar value.
What was measured:
PAD = test: Induction of PAD activity against human A549 cells; assay type: toxicity, cell-based
[1] = Clearance in rat at 1 mg/kg, iv; assay type: ADME, organism-based; conditions: in vivo
THP-1 = test: Antiinflammatory activity against human THP-1 cells assessed as inhibition of LPS induced IL-23 production; assay type: functional, cell-based
[2] = Antiinflammatory activity against human dendritic cells assessed as inhibition of LPS induced IL-23 production; assay type: functional, cell-based; conditions: Dendritic cell
[3] = target: T1, Interleukin-1 receptor-associated kinase 4 (Homo sapiens, UniProt Q9NWZ3); test: Inhibition of IRAK4 (unknown origin)
T1 sequence (Q9NWZ3 whole entry): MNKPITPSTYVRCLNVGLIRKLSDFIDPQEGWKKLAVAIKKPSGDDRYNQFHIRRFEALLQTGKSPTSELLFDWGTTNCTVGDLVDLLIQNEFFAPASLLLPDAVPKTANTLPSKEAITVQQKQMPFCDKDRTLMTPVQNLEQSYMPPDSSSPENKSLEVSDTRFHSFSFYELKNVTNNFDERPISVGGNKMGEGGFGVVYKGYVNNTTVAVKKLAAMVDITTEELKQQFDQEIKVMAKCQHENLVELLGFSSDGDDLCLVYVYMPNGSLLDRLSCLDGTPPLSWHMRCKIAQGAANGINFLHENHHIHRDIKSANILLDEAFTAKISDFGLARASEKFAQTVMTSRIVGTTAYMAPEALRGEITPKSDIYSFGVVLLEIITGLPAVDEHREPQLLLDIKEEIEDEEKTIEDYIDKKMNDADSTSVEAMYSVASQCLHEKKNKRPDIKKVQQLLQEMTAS

[4] = Oral bioavailability in rat at 5 mg/kg; assay type: ADME, organism-based; conditions: in vivo

clearance [1] [mL/min/kg] | pIC50 (THP-1) | pIC50 [2] | pIC50 [3] | bioavailability [4] [%] | Compound | pIC50 (PAD)
105 | 6.55 | 5.14 | 8.52 |  | NC(=O)[C@@H]1[C@H](Nc2nc(Nc3cccc(C(=O)N4CCCC4)c3)nc3ncsc23)[C@H]2C=C[C@@H]1C2 | 5.40
242 | 7.10 | 7.22 | 8.15 | < 1 | CN1CCN(c2cc(Nc3nc(N[C@H]4[C@@H](C(N)=O)[C@@H]5C=C[C@H]4C5)c4sccc4n3)ccn2)CC1 | 5.77
101 | 6.66 | 7.05 | 8.52 |  | NC(=O)[C@@H]1[C@H](Nc2nc(Nc3cccc(C(=O)N4CCCC4)c3)nc3ccoc23)[C@H]2C=C[C@@H]1C2 | 5.24
 | 7.15 | 7.40 | 8.00 |  | NC(=O)[C@@H]1[C@H](Nc2nc(Nc3ccc(C(=O)N4CCCC4)cc3)nc3ccsc23)[C@H]2C=C[C@@H]1C2 | 6.25
 | 6.30 | 5.89 | 8.39 |  | CC(C)n1ncc2ccc(Nc3nc(N[C@H]4[C@@H](C(N)=O)[C@@H]5C=C[C@H]4C5)c4c(ccn4C)n3)cc21 | 5.48
100 | 7.40 | 7.30 | 7.96 |  | NC(=O)[C@@H]1[C@H](Nc2nc(Nc3cccc(C(=O)N4CCCC4)c3)nc3[nH]ccc23)[C@H]2C=C[C@@H]1C2 | 6.38
92 | 6.57 | 7.10 | 8.52 |  | NC(=O)[C@@H]1[C@H](Nc2nc(Nc3ccc(F)c(C(=O)N4CCCC4)c3)nc3ccsc23)[C@H]2C=C[C@@H]1C2 | 5.10
 | 6.38 | 6.04 | 8.57 |  | CC(C)n1ccc2nc(Nc3ccc4cnn(C(C)C)c4c3)nc(N[C@H]3[C@@H](C(N)=O)[C@@H]4C=C[C@H]3C4)c21 | 5.59
 | 7.30 | 6.72 | 7.31 |  | NC(=O)[C@@H]1[C@H](Nc2nc(Nc3ccc(OCCN4CCCC4)cc3)nc3ccsc23)[C@H]2C=C[C@@H]1C2 | 6.21
141 | 7.22 | 7.30 | 8.70 |  | NC(=O)[C@@H]1[C@H](Nc2nc(Nc3cc(F)cc(C(=O)N4CCCC4)c3)nc3ccsc23)[C@H]2C=C[C@@H]1C2 | 5.74
132 | 7.10 | 7.00 | 8.00 | 12 | NC(=O)[C@@H]1[C@H](Nc2nc(Nc3ccnc(N4CCOCC4)c3)nc3ccsc23)[C@H]2C=C[C@@H]1C2 | 5.57
 | 7.15 | 7.52 | 7.85 |  | NC(=O)[C@@H]1[C@H](Nc2nc(Nc3ccc(C(=O)N4CCOCC4)cc3)nc3ccsc23)[C@H]2C=C[C@@H]1C2 | 5.96
180 | 6.70 | 6.70 | 8.30 |  | NC(=O)[C@@H]1[C@H](Nc2nc(Nc3cccc(C(=O)N4CCCC4)c3)nc3[nH]cnc23)[C@H]2C=C[C@@H]1C2 | 5.40
124 | 6.54 | 6.32 | 8.40 |  | NC(=O)[C@@H]1[C@H](Nc2nc(Nc3cccc(C(=O)N4CCCC4)c3)nc3[nH]ncc23)[C@H]2C=C[C@@H]1C2 | 5.24
47 | 7.43 |  | 8.30 | 7 | Cc1n[nH]c2nc(Nc3cc(F)cc(N4CCOCC4)c3)nc(N[C@H]3[C@@H](C(N)=O)[C@@H]4C=C[C@H]3C4)c12 | 6.59
99 | 7.10 | 7.00 | 7.92 | 16 | CN1CCN(c2cc(F)cc(Nc3nc(N[C@H]4[C@@H](C(N)=O)[C@@H]5C=C[C@H]4C5)c4sccc4n3)c2)CC1 | 5.82

clearance [1] [mL/min/kg] | pIC50 (THP-1) | pIC50 [2] | pIC50 [3] | bioavailability [4] [%] | Compound | pIC50 (PAD)
 | 5.42 | 5.85 | 8.22 |  | NC(=O)[C@@H]1[C@H](Nc2nc(Nc3cccc(C(=O)N4CCCC4)c3)nc3cc[nH]c23)[C@H]2C=C[C@@H]1C2 | < 4.00
104 | 6.59 | 6.00 | 7.77 |  | NC(=O)[C@H]1CCC[C@H]1Nc1nc(Nc2cccc(C(=O)N3CCCC3)c2)nc2ccsc12 | < 4.00
143 | 5.33 |  | 7.01 |  | O=C(c1cccc(Nc2nc(NC3C[C@@H]4CC[C@H]3C4)c3sccc3n2)c1)N1CCC(F)C1 (stereo partly drawn) | 5.46
 | 4.96 |  | 6.15 |  | NC(=O)[C@@H]1[C@H](Nc2nc(Nc3cc(C(=O)N4CCCC4)ccc3F)nc3ccsc23)[C@H]2C=C[C@@H]1C2 | 4.85
 | 7.70 |  | 8.10 |  | Cc1c[nH]c2nc(Nc3cccc(C(=O)N4CCCC4)c3)nc(N[C@H]3[C@@H](C(N)=O)[C@@H]4C=C[C@H]3C4)c12 | 7.10
52 | 6.62 |  | 7.02 | 23 | NC(=O)[C@@H]1[C@H](Nc2nc(Nc3ccc(F)c(N4CCOCC4)c3)nc3ccsc23)[C@H]2C=C[C@@H]1C2 | 5.60
 | 5.59 |  | 7.74 |  | NC(=O)[C@@H]1[C@H](Nc2nc(Nc3cc(F)cc(N4CCOCC4)c3)nc3ncsc23)[C@H]2C=C[C@@H]1C2 | 5.12
113 | 6.82 | 7.10 | 8.22 |  | NC(=O)[C@@H]1[C@H](Nc2nc(Nc3cccc(C(=O)N4CCOCC4)c3)nc3ccsc23)[C@H]2C=C[C@@H]1C2 | 5.31
 | 6.05 |  | 8.40 |  | Cn1ncc2nc(Nc3cccc(C(=O)N4CCCC4)c3)nc(N[C@H]3[C@@H](C(N)=O)[C@@H]4C=C[C@H]3C4)c21 | 5.00
102 | 6.60 | 6.31 | 8.30 |  | NC(=O)[C@@H]1[C@H](Nc2nc(Nc3cccc(C(=O)N4CCCC4)c3)nc3ccccc23)[C@H]2C=C[C@@H]1C2 | 5.12
 | 6.70 |  | 6.69 |  | NC(=O)[C@@H]1[C@H](Nc2nc(Nc3ccnc(N4CCCC4)c3)nc3ccsc23)[C@H]2C=C[C@@H]1C2 | 5.59
 | 6.29 |  | 7.30 |  | CN1CCN(c2cc(Nc3nc(N[C@H]4[C@@H](C(N)=O)[C@@H]5C=C[C@H]4C5)c4sccc4n3)ccc2F)CC1 | 5.70
82 | 7.05 | 7.40 | 7.82 | 3 | NC(=O)[C@@H]1[C@H](Nc2nc(Nc3cccc(C(=O)N4CCC(F)C4)c3)nc3ccsc23)[C@H]2C=C[C@@H]1C2 (stereo partly drawn) | 5.57
56 | 6.62 | 5.82 | 7.72 |  | NC(=O)c1ccccc1Nc1nc(Nc2cccc(C(=O)N3CCCC3)c2)nc2ccsc12 | 5.19
 | 5.03 |  | 7.77 |  | NC(=O)[C@@H]1[C@H](Nc2nc(Nc3cccc(C(=O)N4CCCC4)c3)nc3cn[nH]c23)[C@H]2C=C[C@@H]1C2 | < 4.00

From ChEMBL document CHEMBL5104140, “Bicyclic pyrimidine compounds as potent IRAK4 inhibitors” (Bioorg Med Chem Lett, 2022)
